TGI data for eight compounds are collected here from PubChem BioAssay (NCI).

Molecules are shown by their SMILES.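 A five-concentration, 48-hour dose response in 96-well plates underlies each endpoint, interpolated linearly between surrounding concentrations. TGI is the concentration that stops growth completely.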

Test systems include HOP-92 NSCLC; HT29 colon; K-562 leukemia; LOX IMVI melanoma; MDA-MB-231 breast; MOLT-4 leukemia; RXF 393 renal; SF-539 CNS; SR leukemia; TK-10 renal.
Assay in all cases: growth of human tumour cells (NCI), 48 h

`COc1ccc(CCN2C(=O)C(=O)C(C(=O)c3ccccc3)C2c2ccccc2)cc1OC` (stereo not given): the TGI with HOP-92 NSCLC, in the assay with HT29 colon, with K-562 leukemia, in the assay on LOX IMVI melanoma, with MDA-MB-231 breast and in the assay on MOLT-4 leukemia was greater than 100 µM each time. For the same compound, the TGI in the assay with RXF 393 renal, with SF-539 CNS, in the assay on SR leukemia and in the assay with TK-10 renal was greater than 100 µM each time.

Take `NS(=O)(=O)c1ccc(NNc2c3ccccc3nc3c(C(=O)Nc4ccc(S(N)(=O)=O)cc4)cccc23)cc1`: the TGI in the assay on HOP-92 NSCLC was 73.4 µM; with HT29 colon, 72.4 µM; in the assay on K-562 leukemia, 62.1 µM; in the assay with LOX IMVI melanoma it was 27.5 µM; in the assay with MDA-MB-231 breast it was greater than 100 µM; in the assay with MOLT-4 leukemia, 49.6 µM. In addition, the TGI is 64.5 µM with RXF 393 renal, greater than 100 µM in the assay on SF-539 CNS, 57.9 µM in the assay with SR leukemia and greater than 100 µM with TK-10 renal.

Regarding `COCc1nc(C#N)c(N)o1`, the TGI in the assay on HOP-92 NSCLC, with HT29 colon, in the assay with K-562 leukemia, in the assay with LOX IMVI melanoma, in the assay with MDA-MB-231 breast and in the assay on MOLT-4 leukemia was greater than 10 µM in each case. Also, the TGI in the assay on RXF 393 renal, with SF-539 CNS, with SR leukemia and in the assay on TK-10 renal was greater than 10 µM in each case.

`COc1cc(OC)cc(Oc2nc3ccc(C(F)(F)F)cc3nc2-c2ccccc2)c1`: the TGI with HOP-92 NSCLC, in the assay on HT29 colon, in the assay on K-562 leukemia, in the assay on LOX IMVI melanoma, in the assay on MDA-MB-231 breast and in the assay with MOLT-4 leukemia was greater than 100 µM each time. Besides, the TGI with RXF 393 renal, with SF-539 CNS, in the assay with SR leukemia and in the assay on TK-10 renal was greater than 100 µM in each case.

In the case of `CCO/C=N\C1=C(C#N)SC2=N/C(=C\c3ccco3)C(=O)N21`, the TGI with HOP-92 NSCLC, with HT29 colon, in the assay on K-562 leukemia, in the assay on LOX IMVI melanoma, with MDA-MB-231 breast and in the assay with MOLT-4 leukemia was greater than 100 µM each time. In addition, the TGI in the assay on RXF 393 renal, in the assay on SF-539 CNS, in the assay with SR leukemia and in the assay on TK-10 renal was greater than 100 µM in each case.

Consider `CC(C)=CCN1c2ccccc2[C@@]2(CC=C(C)C)CCN(C)[C@@H]12`, for which the TGI is greater than 100 µM in the assay on HOP-92 NSCLC; 90.4 µM with HT29 colon; 48.2 µM in the assay with K-562 leukemia; 34 µM in the assay with LOX IMVI melanoma; greater than 100 µM in the assay with MDA-MB-231 breast; greater than 100 µM in the assay with MOLT-4 leukemia. Moreover, the TGI was greater than 100 µM in the assay with RXF 393 renal, 64.9 µM in the assay on SF-539 CNS, greater than 100 µM in the assay on SR leukemia and greater than 100 µM in the assay with TK-10 renal.

For the compound `COc1cccc(O)c1-c1cc(=O)c2c(O)c(OC)c(OC)c(OC)c2o1`, the TGI with HOP-92 NSCLC was 82.8 µM; with HT29 colon it was 91 µM; in the assay on K-562 leukemia, greater than 100 µM; in the assay on LOX IMVI melanoma it was greater than 100 µM; in the assay on MDA-MB-231 breast, greater than 100 µM; in the assay with MOLT-4 leukemia, 97.7 µM. The TGI in the assay on RXF 393 renal is 42.9 µM; with SF-539 CNS, greater than 100 µM; in the assay with SR leukemia, 40.1 µM; with TK-10 renal, greater than 100 µM.

Consider `O=C(O)CN1CCN2CCOCCN(CC1)CCN(CC(=O)O)CC2`, for which the TGI in the assay with HOP-92 NSCLC, in the assay with HT29 colon, in the assay with K-562 leukemia, with LOX IMVI melanoma, in the assay on MDA-MB-231 breast and in the assay with MOLT-4 leukemia was greater than 100 µM throughout. Moreover, the TGI in the assay on RXF 393 renal, in the assay on SF-539 CNS, in the assay on SR leukemia and in the assay on TK-10 renal was greater than 100 µM in each case.
